Data as given in PubChem BioAssay (NCI).
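GI50 is the concentration that inhibits growth by half. TGI is the concentration that stops growth completely.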

Experiments:
Test in all cases: inhibition of tumour cell growth, NCI panel, 384-well format
ACHN renal = system: ACHN renal
KM12 colon = system: KM12 colon
M14 melanoma = system: M14 melanoma
OVCAR-5 ovarian = system: OVCAR-5 ovarian
HOP-62 NSCLC = system: HOP-62 NSCLC
NCI/ADR-RES ovarian = system: NCI/ADR-RES ovarian
U251 glioblastoma = system: U251 glioblastoma
DU-145 prostate = system: DU-145 prostate
MCF7 breast = system: MCF7 breast
HS 578T breast = system: HS 578T breast
SF-295 CNS = system: SF-295 CNS
IGROV1 ovarian = system: IGROV1 ovarian
SR leukemia = system: SR leukemia
NCI-H522 lung = system: NCI-H522 lung
UACC-62 melanoma = system: UACC-62 melanoma
SK-MEL-28 melanoma = system: SK-MEL-28 melanoma
TK-10 renal = system: TK-10 renal
LOX IMVI melanoma = system: LOX IMVI melanoma
NCI-H23 lung = system: NCI-H23 lung
A549 NSCLC = system: A549 NSCLC
MDA-MB-231 breast = system: MDA-MB-231 breast
UACC-257 melanoma = system: UACC-257 melanoma
SN12C renal = system: SN12C renal
NCI-H322M lung = system: NCI-H322M lung
SK-MEL-5 melanoma = system: SK-MEL-5 melanoma
HCT-15 colon = system: HCT-15 colon
NCI-H226 lung = system: NCI-H226 lung
SF-268 CNS = system: SF-268 CNS
OVCAR-3 ovarian = system: OVCAR-3 ovarian
CAKI-1 renal = system: CAKI-1 renal
SK-OV-3 ovarian = system: SK-OV-3 ovarian
MDA-MB-435 melanoma = system: MDA-MB-435 melanoma
BT-549 breast = system: BT-549 breast
MOLT-4 leukemia = system: MOLT-4 leukemia
COLO 205 colon = system: COLO 205 colon
EKVX NSCLC = system: EKVX NSCLC
HCT-116 colon = system: HCT-116 colon
HCC-2998 colon = system: HCC-2998 colon
OVCAR-4 ovarian = system: OVCAR-4 ovarian
MDA-MB-468 breast = system: MDA-MB-468 breast
SNB-75 CNS = system: SNB-75 CNS
HL-60(TB) leukemia = system: HL-60(TB) leukemia
RPMI-8226 leukemia = system: RPMI-8226 leukemia
NCI-H460 NSCLC = system: NCI-H460 NSCLC
A498 renal = system: A498 renal
MALME-3M melanoma = system: MALME-3M melanoma
SF-539 CNS = system: SF-539 CNS
PC-3 prostate = system: PC-3 prostate

For CC(C)(C)c1cnc(CSc2cnc(NC(=O)C3CCNCC3)s2)o1, the GI50 (ACHN renal) was 950 nM, the TGI (ACHN renal) was 34100 nM and the GI50 (KM12 colon) was 35 nM. For the same molecule, the TGI (KM12 colon) was 13700 nM, the GI50 (M14 melanoma) was 166 nM and the TGI (M14 melanoma) was 425 nM. It also gave a GI50 (OVCAR-5 ovarian) of 25.2 nM, a TGI (OVCAR-5 ovarian) of 59.4 nM and a GI50 (HOP-62 NSCLC) of 66 nM. For the same molecule, the TGI (HOP-62 NSCLC) was 330 nM, the GI50 (NCI/ADR-RES ovarian) was 26300 nM and the TGI (NCI/ADR-RES ovarian) was greater than 100000 nM. It also gave a GI50 (U251 glioblastoma) of 107 nM, a TGI (U251 glioblastoma) of 547 nM and a GI50 (DU-145 prostate) of 42 nM. It also gave a TGI (DU-145 prostate) of 299 nM, a GI50 (MCF7 breast) of 29.8 nM and a TGI (MCF7 breast) of 16900 nM. For the same molecule, the GI50 (HS 578T breast) was 136 nM, the TGI (HS 578T breast) was 431 nM and the GI50 (SF-295 CNS) was 373 nM. For the same molecule, the TGI (SF-295 CNS) was 27100 nM, the GI50 (IGROV1 ovarian) was 53.1 nM and the TGI (IGROV1 ovarian) was 566 nM. The GI50 (SR leukemia) was 12.1 nM, the TGI (SR leukemia) was 24.6 nM and the GI50 (NCI-H522 lung) was 147 nM. The TGI (NCI-H522 lung) was 306 nM, the GI50 (UACC-62 melanoma) was 47.3 nM and the TGI (UACC-62 melanoma) was 191 nM. For the same molecule, the GI50 (SK-MEL-28 melanoma) was 120 nM, the TGI (SK-MEL-28 melanoma) was 285 nM and the GI50 (TK-10 renal) was 232 nM. For the same molecule, the TGI (TK-10 renal) was 799 nM, the GI50 (LOX IMVI melanoma) was 24.1 nM and the TGI (LOX IMVI melanoma) was 59.9 nM. For the same molecule, the GI50 (NCI-H23 lung) was 78.3 nM, the TGI (NCI-H23 lung) was 212 nM and the GI50 (A549 NSCLC) was 101 nM. For the same molecule, the TGI (A549 NSCLC) was greater than 100000 nM, the GI50 (MDA-MB-231 breast) was 62.4 nM and the TGI (MDA-MB-231 breast) was greater than 100000 nM. For the same molecule, the GI50 (UACC-257 melanoma) was 166 nM, the TGI (UACC-257 melanoma) was 350 nM and the GI50 (SN12C renal) was 38.4 nM. It also gave a TGI (SN12C renal) of 186 nM, a GI50 (NCI-H322M lung) of 38.1 nM and a TGI (NCI-H322M lung) of 159 nM. The GI50 (SK-MEL-5 melanoma) was 109 nM, the TGI (SK-MEL-5 melanoma) was 249 nM and the GI50 (HCT-15 colon) was 2450 nM. The TGI (HCT-15 colon) was greater than 100000 nM, the GI50 (NCI-H226 lung) was 188 nM and the TGI (NCI-H226 lung) was 680 nM. The GI50 (SF-268 CNS) was 41 nM, the TGI (SF-268 CNS) was 264 nM and the GI50 (OVCAR-3 ovarian) was 46.4 nM. The TGI (OVCAR-3 ovarian) was 221 nM, the GI50 (CAKI-1 renal) was 394 nM and the TGI (CAKI-1 renal) was greater than 100000 nM. It also gave a GI50 (SK-OV-3 ovarian) of 192 nM, a TGI (SK-OV-3 ovarian) greater than 100000 nM and a GI50 (MDA-MB-435 melanoma) of 113 nM. It also gave a TGI (MDA-MB-435 melanoma) of 322 nM, a GI50 (BT-549 breast) of 114 nM and a TGI (BT-549 breast) of 277 nM. For the same molecule, the GI50 (MOLT-4 leukemia) was 37.4 nM, the TGI (MOLT-4 leukemia) was 104 nM and the GI50 (COLO 205 colon) was 25 nM. It also gave a TGI (COLO 205 colon) of 62.8 nM, a GI50 (EKVX NSCLC) of 204 nM and a TGI (EKVX NSCLC) of 1070 nM. It also gave a GI50 (HCT-116 colon) of 32.3 nM, a TGI (HCT-116 colon) greater than 100000 nM and a GI50 (HCC-2998 colon) of 51.8 nM. For the same molecule, the TGI (HCC-2998 colon) was 208 nM, the GI50 (OVCAR-4 ovarian) was 63.7 nM and the TGI (OVCAR-4 ovarian) was 368 nM. For the same molecule, the GI50 (MDA-MB-468 breast) was 50.8 nM, the TGI (MDA-MB-468 breast) was 176 nM and the GI50 (SNB-75 CNS) was 124 nM. For the same molecule, the TGI (SNB-75 CNS) was 278 nM, the GI50 (HL-60(TB) leukemia) was 14.3 nM and the TGI (HL-60(TB) leukemia) was 27.5 nM. It also gave a GI50 (RPMI-8226 leukemia) of 27.3 nM, a TGI (RPMI-8226 leukemia) of 70.4 nM and a GI50 (NCI-H460 NSCLC) of 68.6 nM. For the same molecule, the TGI (NCI-H460 NSCLC) was 256 nM, the GI50 (A498 renal) was 240 nM and the TGI (A498 renal) was 627 nM. It also gave a GI50 (MALME-3M melanoma) of 123 nM, a TGI (MALME-3M melanoma) of 264 nM and a GI50 (SF-539 CNS) of 35.4 nM. The TGI (SF-539 CNS) was 134 nM, the GI50 (PC-3 prostate) was 70.9 nM and the TGI (PC-3 prostate) was 397 nM.
